Laboratory results reported in US11731943B2, “Therapeutic compounds, compositions and methods of use thereof” (priority 2016, dated 2023).
Where two headings read alike, the source gives them in different places.

Legend:
[1] = molecular target: isolated recombinant JAK1 kinase domain (Homo sapiens (Human), UniProt P23458); assay: JAK1 enzyme assay (Caliper LabChip, Ki); format: biochemical
Method in brief: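 Ki derived via Morrison tight-binding model, ATP-competitive correction applied. Read-out: product/total ratio of a 5-carboxyfluorescein-tagged JAK3 peptide separated on Caliper LabChip after phosphorylation by isolated human JAK1 kinase domain (22 °C, 30 min; EDTA quench, 50 mM final).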

[2] = molecular target: isolated recombinant JAK2 kinase domain (Homo sapiens (Human), UniProt O60674); assay: JAK2 enzyme assay (Caliper LabChip, Ki); format: biochemical
Chain of isolated recombinant JAK2 kinase domain (O60674 849-1124): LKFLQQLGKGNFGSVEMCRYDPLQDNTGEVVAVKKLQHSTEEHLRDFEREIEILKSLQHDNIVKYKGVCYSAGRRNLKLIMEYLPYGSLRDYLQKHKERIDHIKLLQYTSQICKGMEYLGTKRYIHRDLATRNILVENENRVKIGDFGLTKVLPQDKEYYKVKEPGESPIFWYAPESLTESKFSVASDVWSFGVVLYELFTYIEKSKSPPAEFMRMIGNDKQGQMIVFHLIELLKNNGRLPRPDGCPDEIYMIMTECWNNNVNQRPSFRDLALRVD
Method in brief: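 Caliper LabChip readout of phosphorylated product as a fraction of total substrate, a fluorescently N-terminally labelled JAK3-derived peptide. Isolated human JAK kinase domains were incubated 30 min at 22 °C before EDTA quench (50 mM final).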

[3] = tested on: JAK1-dependent STAT6 phosphorylation downstream of IL-13 stimulation in BEAS-2B human bronchial epithelial cells; assay: JAK1 pathway assay in BEAS-2B cells (IL-13-pSTAT6, MSD); format: cell-based; details: Homo sapiens, BEAS-2B
Procedure: JAK1 Pathway Assay in Cell Lines was carried out as follows:
Inhibitor potency (EC50) was determined in cell-based assays designed to measure JAK1 dependent STAT phosphorylation.
In one assay approach, TF-1 human erythroleukemia cells obtained from the American Type Culture Collection (ATCC; Manassas, Va.) were used to measure JAK1-dependent STAT6 phosphorylation downstream of IL-13 stimulation. Prior to use in the assays, TF-1 cells were starved of GM-CSF overnight in OptiMEM medium (Life Technologies, Grand Island, N.Y.) supplemented with 0.5% charcoal/dextran stripped fetal bovine serum (FBS), 0.1 mM non-essential amino acids (NEAA), and 1 mM sodium pyruvate. The assays were run in 384-well plates in serum-free OptiMEM medium using 300,000 cells per well. In a second assay approach, BEAS-2B human bronchial epithelial cells obtained from ATCC were plated at 100,000 cells per well of a 96-well plate one day prior to the experiment. The BEAS-2B assay was run in complete growth medium (bronchial epithelial basal medium plus bulletkit; Lonza; Basel, Switzerland).
Test compounds were serially diluted 1:2 in DMSO and then diluted 1:50 in medium just before use. Diluted compounds were added to the cells, for a final DMSO concentration of 0.2%, and incubated for 30 min (for the TF-1 assay) or 1 hr (for the BEAS-2B assay) at 37° C. Then, cells were stimulated with human recombinant cytokine at their respective EC90 concentrations, as previously determined for each individual lot. Cells were stimulated with IL-13 (R&D Systems, Minneapolis, Minn.) for 15 min at 37° C. The TF-1 cell reactions were stopped by the direct addition of 10× lysis buffer (Cell Signaling Technologies, Danvers, Mass.), whereas the BEAS-2B cell incubations were halted by the removal of medium and addition of 1× lysis buffer. The resultant samples were frozen in the plates at −80° C. Compound mediated inhibition of STATE phosphorylation was measured in the cell lysates using MesoScale Discovery (MSD) technology (Gaithersburg, Md.).

[4] = BEAS-2B cells, IL-13 stimulation, read-out: IL-13 p-STAT6 BEAS-2B IC50

Chain of isolated recombinant JAK1 kinase domain (P23458 875-1153): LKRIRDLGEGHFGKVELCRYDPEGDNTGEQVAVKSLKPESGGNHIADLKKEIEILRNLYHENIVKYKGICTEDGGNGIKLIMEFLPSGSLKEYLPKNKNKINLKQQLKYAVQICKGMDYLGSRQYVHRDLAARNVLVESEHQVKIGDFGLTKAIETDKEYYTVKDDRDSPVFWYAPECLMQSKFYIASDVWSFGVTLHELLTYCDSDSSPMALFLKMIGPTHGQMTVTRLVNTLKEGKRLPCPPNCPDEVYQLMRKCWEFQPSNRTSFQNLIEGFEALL

Work on `N#CCC1(n2cc(C(N)=O)c(NC(=O)C3CC3)n2)CCN(Cc2ccc(C#N)cc2)CC1` [Example 66] yielded a Ki ([1]; read-out: JAK1 Ki) of 4 nM, a Ki [2] of 50.2 nM and an IC50 [3, 4] of 910 nM.

In the case of `N#CC[C@]1(n2cc(C(N)=O)c(NC(=O)C3CC3)n2)CC[C@H](N2CC(C(F)(F)F)C2)CC1` (single isomer, unassigned) [Example 8], the Ki ([1]; read-out: JAK1 Ki) is reported as 1.7 nM, the Ki [2] is reported as 11 nM and the IC50 [3, 4] is reported as 194 nM.

With `N#CCC1(n2cc(C(N)=O)c(NC(=O)C3CC3)n2)CCN(Cc2ccccc2F)CC1` [Example 184, 1-[4-(cyanomethyl)-1-[(2-fluorophenyl)methyl]-4-piperidyl]-3-(cyclopropanecarbonylamino) pyrazole-4-carboxamide] the Ki ([1]; read-out: JAK1 Ki) was 90.4 nM, the Ki [2] was 160 nM and the IC50 [3, 4] was 177 nM.

`CC[C@]1(n2cc(C(N)=O)c(Nc3ccc(S(C)(=O)=O)cc3)n2)CC[C@H](N2CC(C(F)(F)F)C2)CC1` [Example 302, 1-((1S,4S)-1-ethyl-4-(3-(trifluoromethyl)azetidin-1-yl)cyclohexyl)-3-((4-(methylsulfonyl)phenyl)amino)-1H-pyrazole-4-carboxamide] gave a Ki ([1]; read-out: JAK1 Ki) of 0.94 nM, a Ki [2] of 2 nM and an IC50 [3, 4] of 43 nM.

`COC(=O)Nc1nn(C2(CC#N)CCN(Cc3ccc(C4CC4)cc3)CC2F)cc1C(N)=O` (stereo not drawn) [Example 281, methyl N-[4-carbamoyl-1-[4-(cyanomethyl)-1-[(4-cyclopropylphenyl)methyl]-3-fluoro-4-piperidyl]pyrazol-3-yl]carbamate] showed a Ki ([1]; read-out: JAK1 Ki) of 1.1 nM, a Ki [2] of 2.2 nM and an IC50 [3, 4] of 36 nM.

Molecule `Cc1ccc(-c2ccc(CN3CCC(CC#N)(n4cc(C(N)=O)c(NC(=O)C5CC5)n4)C(F)C3)cc2)o1` (stereo not drawn) [Example 223, 1-[4-(cyanomethyl)-3-fluoro-1-[[4-(5-methyl-2-furyl)phenyl]methyl]-4-piperidyl]-3-(cyclopropanecarbonylamino) pyrazole-4-carboxamide] has a Ki ([1]; read-out: JAK1 Ki) of 0.38 nM, a Ki [2] of 0.34 nM and an IC50 [3, 4] of 12 nM.

Molecule `N#CCC1(n2cc(C(N)=O)c(NC(=O)C3CC3)n2)CCN(Cc2ccc(-c3ccccc3F)cc2)CC1` [Example 142, 1-[4-(cyanomethyl)-1-[[4-(2-fluorophenyl)phenyl]methyl]-4-piperidyl]-3-(cyclopropanecarbonylamino) pyrazole-4-carboxamide] has a Ki ([1]; read-out: JAK1 Ki) of 1.7 nM, a Ki [2] of 12.9 nM and an IC50 [3, 4] of 60 nM.

In the case of `N#CCC1(n2cc(C(N)=O)c(NC(=O)C3CC3)n2)CCN(Cc2cc(O)c(-c3ccccc3)cc2F)CC1F` (stereo not drawn) [Example 207, 1-[4-(cyanomethyl)-3-fluoro-1-[(2-fluoro-5-hydroxy-4-phenyl-phenyl)methyl]-4-piperidyl]-3-(cyclopropanecarbonylamino) pyrazole-4-carboxamide], the Ki ([1]; read-out: JAK1 Ki) is reported as 0.11 nM, the Ki [2] is reported as 0.13 nM and the IC50 [3, 4] is reported as 29 nM.

For `COC(=O)Nc1nn(C2(CC#N)CCN(Cc3ccc(-c4ccoc4)c(O)c3)CC2F)cc1C(N)=O` (stereo not drawn) [Example 244, methyl N-[4-carbamoyl-1-[4-(cyanomethyl)-3-fluoro-1-[[4-(3-furyl)-3-hydroxy-phenyl]methyl]-4-piperidyl]pyrazol-3-yl]carbamate], the Ki ([1]; read-out: JAK1 Ki) was 0.2 nM, the Ki [2] was 0.37 nM and the IC50 [3, 4] was 67 nM.

`N#CCC1(n2cc(C(N)=O)c(NC(=O)C3CC3)n2)CCN(Cc2ccc(-c3cccc(Cl)c3)cc2)CC1` [Example 146, 1-[1-[[4-(3-chlorophenyl)phenyl]methyl]-4-(cyanomethyl)-4-piperidyl]-3-(cyclopropanecarbonylamino) pyrazole-4-carboxamide] was tested, and the Ki ([1]; read-out: JAK1 Ki) was 1.1 nM, the Ki [2] was 8.2 nM and the IC50 [3, 4] was 95 nM.

With `N#CCC1(n2cc(C(N)=O)c(NC(=O)C3CC3)n2)CCN(Cc2ccc(-c3ccc(Cl)s3)cc2)CC1` [Example 148, 1-[1-[[4-(5-chloro-2-thienyl)phenyl]methyl]-4-(cyanomethyl)-4-piperidyl]-3-(cyclopropanecarbonylamino) pyrazole-4-carboxamide] the Ki ([1]; read-out: JAK1 Ki) was 1.8 nM, the Ki [2] was 21.2 nM and the IC50 [3, 4] was 48 nM.

For `CCc1ccc(C2(F)CN(C3CCC(CC#N)(n4cc(C(N)=O)c(NC(=O)C5CC5)n4)CC3)C2)cc1` (stereo not drawn) [Example 265, 1-[1-(cyanomethyl)-4-[3-(4-ethylphenyl)-3-fluoro-azetidin-1-yl]cyclohexyl]-3-(cyclopropanecarbonylamino) pyrazole-4-carboxamide], the Ki ([1]; read-out: JAK1 Ki) was 1.1 nM, the Ki [2] was 4.2 nM and the IC50 [3, 4] was 88 nM.

`N#CCC1(n2cc(C(N)=O)c(NC(=O)C3CC3)n2)CCC(N2CC(F)(c3ccccc3)C2)CC1` (stereo not drawn) [Example 205, 1-[1-(cyanomethyl)-4-(3-fluoro-3-phenyl-azetidin-1-yl)cyclohexyl]-3-(cyclopropanecarbonylamino) pyrazole-4-carboxamide] gave a Ki ([1]; read-out: JAK1 Ki) of 0.89 nM, a Ki [2] of 5.9 nM and an IC50 [3, 4] of 82 nM.

In the case of `C=C(C)c1cc(F)c(CN2CCC(CC#N)(n3cc(C(N)=O)c(NC(=O)OC)n3)C(F)C2)cc1O` (stereo not drawn) [Example 274, methyl N-[4-carbamoyl-1-[4-(cyanomethyl)-3-fluoro-1-[(2-fluoro-5-hydroxy-4-isopropenyl-phenyl)methyl]-4-piperidyl]pyrazol-3-yl]carbamate], the Ki ([1]; read-out: JAK1 Ki) is reported as 0.58 nM, the Ki [2] is reported as 0.61 nM and the IC50 [3, 4] is reported as 38 nM.

With `CCn1ccc(-c2ccc(CN3CCC(CC#N)(n4cc(C(N)=O)c(NC(=O)OC)n4)C(F)C3)cc2)n1` (stereo not drawn) [Example 216, methyl N-[4-carbamoyl-1-[4-(cyanomethyl)-1-[[4-(1-ethylpyrazol-3-yl)phenyl]methyl]-3-fluoro-4-piperidyl]pyrazol-3-yl]carbamate] the Ki ([1]; read-out: JAK1 Ki) was 0.74 nM, the Ki [2] was 0.7 nM and the IC50 [3, 4] was 40 nM.

For `N#CCC1(n2cc(C(N)=O)c(NC(=O)C3CC3)n2)CCN(Cc2ccc(-c3cccc(F)c3)cc2)CC1` [Example 143, 1-[4-(cyanomethyl)-1-[[4-(3-fluorophenyl)phenyl]methyl]-4-piperidyl]-3-(cyclopropanecarbonylamino) pyrazole-4-carboxamide], the Ki ([1]; read-out: JAK1 Ki) was 0.7 nM, the Ki [2] was 5.5 nM and the IC50 [3, 4] was 49 nM.

`CCc1nc(-c2ccc(CN3CCC(CC#N)(n4cc(C(N)=O)c(NC(=O)OC)n4)C(F)C3)cc2)cs1` (stereo not drawn) [Example 252, methyl N-[4-carbamoyl-1-[4-(cyanomethyl)-1-[[4-(2-ethylthiazol-4-yl)phenyl]methyl]-3-fluoro-4-piperidyl]pyrazol-3-yl]carbamate] was tested, and the Ki ([1]; read-out: JAK1 Ki) was 0.3 nM, the Ki [2] was 0.52 nM and the IC50 [3, 4] was 22 nM.

For `N#CCC1(n2cc(C(N)=O)c(NC(=O)C3CC3)n2)CCN(Cc2ccc(-c3csc(Cl)c3)cc2)CC1` [Example 149, 1-[1-[[4-(5-chloro-3-thienyl)phenyl]methyl]-4-(cyanomethyl)-4-piperidyl]-3-(cyclopropanecarbonylamino) pyrazole-4-carboxamide], the Ki ([1]; read-out: JAK1 Ki) was 0.7 nM, the Ki [2] was 4.7 nM and the IC50 [3, 4] was 41 nM.

Molecule `C#Cc1ccc(CN2CCC(CC#N)(n3cc(C(N)=O)c(NC(=O)OC)n3)C(F)C2)c(Cl)c1` (stereo not drawn) [Example 289, methyl N-[4-carbamoyl-1-[1-[(2-chloro-4-ethynyl-phenyl)methyl]-4-(cyanomethyl)-3-fluoro-4-piperidyl]pyrazol-3-yl]carbamate] has a Ki ([1]; read-out: JAK1 Ki) of 0.26 nM, a Ki [2] of 0.55 nM and an IC50 [3, 4] of 15 nM.

For `N#CC[C@]1(n2cc(C(N)=O)c(NC(=O)C3CC3)n2)CC[C@@H](NCc2ccc(-c3ccccc3)cc2)CC1` [Example 128], the Ki [1] was 4.6 nM, the Ki [2] was 46.4 nM and the IC50 ([3]; read-out: IL-13 p-STAT6 BEAS-2B IC50, BEAS-2B cells, IL-13 stimulation) was 349 nM.
